Several values for one entry are separate records, joined by “and”; a condition that tells them apart may be missing. Identical values can stand only once. Like-named read-outs stand apart in the source and are kept apart here.
How the values were obtained:
PfcProRS = biological target: T1, PfcProRS (Plasmodium falciparum, UniProt Q8I5R7); type: binding; settings: single replicates
T1 construct: made in house; host or cells: E. coli SoluBL-21

HsProRS = HsProRS (Homo sapiens, UniProt P07814); experiment: TR-FRET ligand displacement assay with tracer MAT379 (CoraFluor-1-Halo and anti-His6 antibody formats); type: binding; set-up: made in house; host or cells: E. coli SoluBL-21; settings: for TR-FRET dose-response, normalized signal (SI Fig 11): individual replicates
Sequence of HsProRS (P07814 996-1512): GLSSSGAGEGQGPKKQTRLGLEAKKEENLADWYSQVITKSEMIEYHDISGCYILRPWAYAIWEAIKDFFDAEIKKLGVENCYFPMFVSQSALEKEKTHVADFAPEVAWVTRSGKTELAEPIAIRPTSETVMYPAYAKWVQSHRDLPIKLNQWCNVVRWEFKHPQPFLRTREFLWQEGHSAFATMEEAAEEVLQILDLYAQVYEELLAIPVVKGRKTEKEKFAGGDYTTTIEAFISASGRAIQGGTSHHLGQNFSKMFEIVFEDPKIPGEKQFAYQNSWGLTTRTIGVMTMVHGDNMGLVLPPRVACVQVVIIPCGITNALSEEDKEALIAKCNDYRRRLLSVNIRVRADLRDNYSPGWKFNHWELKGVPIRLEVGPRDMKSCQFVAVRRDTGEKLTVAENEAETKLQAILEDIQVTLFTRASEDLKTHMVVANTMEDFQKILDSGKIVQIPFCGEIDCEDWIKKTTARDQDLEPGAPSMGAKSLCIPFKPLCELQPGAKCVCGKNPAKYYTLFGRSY

T1 sequence (Q8I5R7 249-746): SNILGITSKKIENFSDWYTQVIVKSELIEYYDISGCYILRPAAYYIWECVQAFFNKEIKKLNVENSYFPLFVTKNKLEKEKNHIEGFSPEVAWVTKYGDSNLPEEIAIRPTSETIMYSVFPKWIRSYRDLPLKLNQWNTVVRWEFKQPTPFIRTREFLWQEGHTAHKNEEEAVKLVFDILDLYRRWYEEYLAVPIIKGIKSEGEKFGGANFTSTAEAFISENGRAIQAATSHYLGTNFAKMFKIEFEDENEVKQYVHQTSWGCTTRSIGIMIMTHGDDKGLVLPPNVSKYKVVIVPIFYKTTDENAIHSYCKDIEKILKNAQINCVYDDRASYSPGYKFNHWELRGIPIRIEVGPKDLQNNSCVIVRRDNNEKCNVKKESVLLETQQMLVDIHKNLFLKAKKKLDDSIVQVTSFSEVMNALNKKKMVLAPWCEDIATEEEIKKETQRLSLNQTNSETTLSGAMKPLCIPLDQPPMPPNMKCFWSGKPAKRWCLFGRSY

## CC(C)N(C(=O)Nc1nccnc1C(=O)NC1Cc2ccccc2C1)C(C)C [compound 5]
PfcProRS; Log[inhibitor] (M) -5.000
  dose-response signal (normalized), SI Fig 8: 1.47E-01 and 1.35E-01 and 1.83E-01
PfcProRS; Log[inhibitor] (M) -5.301
  dose-response signal (normalized), SI Fig 8: 3.88E-01 and 4.48E-01 and 4.36E-01
PfcProRS; Log[inhibitor] (M) -5.601
  dose-response signal (normalized), SI Fig 8: 7.44E-01 and 8.07E-01 and 7.69E-01
PfcProRS; Log[inhibitor] (M) -5.904
  dose-response signal (normalized), SI Fig 8: 8.45E-01 and 8.57E-01 and 9.58E-01
PfcProRS; Log[inhibitor] (M) -6.208
  dose-response signal (normalized), SI Fig 8: 8.74E-01 and 8.91E-01 and 9.30E-01
PfcProRS; Log[inhibitor] (M) -6.509
  dose-response signal (normalized), SI Fig 8: 9.93E-01 and 1.13E+00 and 1.03E+00
PfcProRS; Log[inhibitor] (M) -6.796
  dose-response signal (normalized), SI Fig 8: 1.01E+00 and 9.89E-01 and 1.13E+00
PfcProRS; Log[inhibitor] (M) -7.108
  dose-response signal (normalized), SI Fig 8: 9.82E-01 and 9.95E-01 and 1.21E+00
PfcProRS; Log[inhibitor] (M) -7.409
  dose-response signal (normalized), SI Fig 8: 1.20E+00 and 1.06E+00 and 1.08E+00
PfcProRS; Log[inhibitor] (M) -7.710
  dose-response signal (normalized), SI Fig 8: 1.11E+00 (2×) and 1.12E+00
PfcProRS; Log[inhibitor] (M) -8.000
  dose-response signal (normalized), SI Fig 8: 1.01E+00 and 1.06E+00 and 1.07E+00
PfcProRS; Log[inhibitor] (M) -8.301
  dose-response signal (normalized), SI Fig 8: 9.64E-01 and 1.10E+00 and 1.14E+00
PfcProRS; Log[inhibitor] (M) -8.602
  dose-response signal (normalized), SI Fig 8: 8.54E-01 and 1.04E+00 and 1.07E+00
PfcProRS; Log[inhibitor] (M) -9.000
  dose-response signal (normalized), SI Fig 8: 9.25E-01 and 9.26E-01 and 1.03E+00
PfcProRS; Log[inhibitor] (M) -9.301
  dose-response signal (normalized), SI Fig 8: 8.80E-01 and 9.99E-01 and 1.04E+00
HsProRS; HsProRS - best Kd, SI Fig 16a, values on -log scale
  Kd: 1020 nM
HsProRS; Log[inhibitor] (M) -5.000
  normalized TR-FRET ligand displacement signal, dose-response replicates (SI Fig 6): 8.71E-01 and 7.50E-01 and 6.79E-01
  TR-FRET dose-response, normalized signal (SI Fig 11): 6.19E-01 and 6.48E-01 and 6.40E-01
HsProRS; Log[inhibitor] (M) -5.301
  normalized TR-FRET ligand displacement signal, dose-response replicates (SI Fig 6): 9.58E-01 and 7.89E-01 and 8.27E-01
  TR-FRET dose-response, normalized signal (SI Fig 11): 7.58E-01 and 7.59E-01 and 7.76E-01
HsProRS; Log[inhibitor] (M) -5.601
  normalized TR-FRET ligand displacement signal, dose-response replicates (SI Fig 6): 8.37E-01 and 1.05E+00 and 1.03E+00
  TR-FRET dose-response, normalized signal (SI Fig 11): 8.37E-01 and 8.60E-01 and 8.59E-01
HsProRS; Log[inhibitor] (M) -5.904
  normalized TR-FRET ligand displacement signal, dose-response replicates (SI Fig 6): 1.09E+00 and 1.03E+00 and 9.64E-01
  TR-FRET dose-response, normalized signal (SI Fig 11): 9.61E-01 and 8.97E-01 and 9.02E-01
HsProRS; Log[inhibitor] (M) -6.208
  normalized TR-FRET ligand displacement signal, dose-response replicates (SI Fig 6): 9.53E-01 and 8.96E-01 and 9.38E-01
  TR-FRET dose-response, normalized signal (SI Fig 11): 9.36E-01 and 9.49E-01 and 9.17E-01
HsProRS; Log[inhibitor] (M) -6.509
  normalized TR-FRET ligand displacement signal, dose-response replicates (SI Fig 6): 9.42E-01 and 9.99E-01 and 1.01E+00
  TR-FRET dose-response, normalized signal (SI Fig 11): 8.96E-01 and 8.83E-01 and 9.32E-01
HsProRS; Log[inhibitor] (M) -6.796
  normalized TR-FRET ligand displacement signal, dose-response replicates (SI Fig 6): 1.20E+00 (2×) and 1.11E+00
  TR-FRET dose-response, normalized signal (SI Fig 11): 9.19E-01 and 9.16E-01 and 9.35E-01
HsProRS; Log[inhibitor] (M) -7.108
  normalized TR-FRET ligand displacement signal, dose-response replicates (SI Fig 6): 9.92E-01 and 1.02E+00 and 1.18E+00
  TR-FRET dose-response, normalized signal (SI Fig 11): 9.11E-01 and 9.16E-01 and 8.81E-01
HsProRS; Log[inhibitor] (M) -7.409
  normalized TR-FRET ligand displacement signal, dose-response replicates (SI Fig 6): 8.86E-01 and 9.18E-01 and 1.10E+00
  TR-FRET dose-response, normalized signal (SI Fig 11): 9.21E-01 and 9.28E-01 and 9.54E-01
HsProRS; Log[inhibitor] (M) -7.710
  normalized TR-FRET ligand displacement signal, dose-response replicates (SI Fig 6): 1.00E+00 and 9.56E-01 and 9.99E-01
  TR-FRET dose-response, normalized signal (SI Fig 11): 9.54E-01 and 9.03E-01 and 9.47E-01
HsProRS; Log[inhibitor] (M) -8.000
  normalized TR-FRET ligand displacement signal, dose-response replicates (SI Fig 6): 1.08E+00 and 9.18E-01 and 9.67E-01
  TR-FRET dose-response, normalized signal (SI Fig 11): 9.82E-01 and 9.20E-01 and 9.02E-01
HsProRS; Log[inhibitor] (M) -8.301
  normalized TR-FRET ligand displacement signal, dose-response replicates (SI Fig 6): 9.61E-01 and 8.84E-01 and 1.00E+00
  TR-FRET dose-response, normalized signal (SI Fig 11): 9.50E-01 and 9.79E-01 and 9.60E-01
HsProRS; Log[inhibitor] (M) -8.602
  normalized TR-FRET ligand displacement signal, dose-response replicates (SI Fig 6): 9.71E-01 and 1.01E+00 and 8.97E-01
  TR-FRET dose-response, normalized signal (SI Fig 11): 9.46E-01 and 9.17E-01 and 9.64E-01
HsProRS; Log[inhibitor] (M) -9.000
  normalized TR-FRET ligand displacement signal, dose-response replicates (SI Fig 6): 9.83E-01 and 9.95E-01 and 9.23E-01
  TR-FRET dose-response, normalized signal (SI Fig 11): 9.65E-01 and 9.90E-01 and 9.18E-01
HsProRS; Log[inhibitor] (M) -9.301
  normalized TR-FRET ligand displacement signal, dose-response replicates (SI Fig 6): 9.67E-01 and 9.33E-01 and 1.01E+00
  TR-FRET dose-response, normalized signal (SI Fig 11): 9.51E-01 and 9.69E-01 and 8.77E-01

From paper PMC9403976, “Elucidating the path to Plasmodium prolyl-tRNA synthetase inhibitors that overcome halofuginone resistance” (Nature Communications, 2022)
